Earlier results on 3 compounds are cited in patent US20150071857A1, “STEROID HORMONE AND CHOLESTEROL PATHWAYS AS ONE UNIFIED HOMEOSTATIC SYSTEM” (LIGAND PHARMACEUTICALS, INC., priority 2012, published 2015).

For data set [1] the following is noted: high-dose, postmenopausal women.
For data set [2] the following is noted: high dose, on top of statin therapy.
The conditions of data set [3]: parenterally formulated progestin-only contraceptive, women.
For data set [4] the following is noted: large WHI trials.

Like-named read-outs stand apart in the source and are kept apart here.

Consider `O=c1c(-c2ccccc2)coc2ccccc12` [isoflavone], for which, in data set [1], the HDL-C change result is “significantly reduced” and the “total T change” value was “significantly reduced”. Regarding `O=C(O)c1cccnc1` [niacin], the cardiovascular events result in data set [2] is given as “no significant reduction in cardiovascular events”. `CC(=O)O[C@]1(C(C)=O)CC[C@H]2[C@@H]3C[C@H](C)C4=CC(=O)CC[C@]4(C)[C@H]3CC[C@@]21C` [Medroxyprogesterone acetate]: the HDL-C change result in data set [3] was “significant reduction in HDL-C”. Besides, the thrombosis events result in data set [4] was “doubled the thrombosis events”.
